Values of other authors as cited in patent US10342816B2, “Aqueous ophthalmic formulations based on azithromycin” (MEDIVIS S.R.L., priority 2013, dated 2019).

How the values were obtained:
[1] = pharmacopoeia
[2] = aqueous solution, phosphate buffer, low ionic strength

solubility in water [1]: poorly soluble in water
pH at which the kinetics of the hydrolytic phenomenon has the minimum value [2]: 6.3
SMILES: CC[C@H]1OC(=O)[C@H](C)[C@@H](O[C@H]2CC(C)(OC)[C@@H](O)C(C)O2)[C@H](C)[C@@H](O[C@@H]2OC(C)CC(N(C)C)C2O)[C@](C)(O)C[C@@H](C)CN(C)[C@H](C)[C@@H](O)[C@]1(C)O (some centres unmarked) [azithromycin]
